Results as given in patent US20090298956A1, “SELF-PRESERVED EMULSIONS” (priority 2008, published 2009).

Legend:
Type in all cases: cell-based
P. aeruginosa = assay: Preservative efficacy test (PET), log reduction of P. aeruginosa; details: 24 hours, PET Screen International
Protocol: (§1) The antimicrobial activity and stability of the formulations shown in Table 1A below, which contain either 0.1 or 0.2 (w/v %) of Compound 1 were evaluated. Table 1A also contains an emulsion formulation (Formulation C) consisting of Cyclosporin and Compound 1. Table 1B constitutes overall standard preservative efficacy test (PET Screen International) results along with the results of a visual assessment of physical stability of the emulsions. […] Histograms for Formulation B, showing the initial particle size measurements as well as 60 weeks, can be seen in FIGS. 1A & 1B. Similarly, histograms for Formulation C, containing 0.05% Cyclosporin, showing the initial particle size measurements as well as at 62 weeks, can be seen in FIGS. 2A & 2B. […] The microbiological evaluation was conducted by determining the extent to which the emulsions reduced an initial population of about 10^6 cfu/mL microorganisms over time. The abbreviation “cfu” means colony forming unit. […] Overall EPA requirement of preservation in all tested formulations was achieved. The microbiology results are provided in greater detail in Table 1C, where the results of the evaluation of five microorganisms are provided.

E. coli = assay: Preservative efficacy test (PET), log reduction of E. coli; details: 24 hours, PET Screen International
Protocol: as §1

C. albicans = assay: Preservative efficacy test (PET), log reduction of C. albicans; details: 7 days, PET Screen International
Protocol: as §1

S. aureus = assay: Preservative efficacy test (PET), log reduction of S. aureus; details: 24 hours, PET Screen International
Protocol: as §1

Substance: sodium coco-diimonium chloride phosphate [Compound 1]
- log reductions (P. aeruginosa; 0.1% Compound 1 emulsion): 5 log
- log reductions (P. aeruginosa; 0.2% Compound 1 emulsion): 5 log
- log reductions (E. coli; 0.1% Compound 1 emulsion): 5 log
- log reductions (E. coli; 0.2% Compound 1 emulsion): 5 log
- log reductions (C. albicans; 0.1% Compound 1 emulsion): approximately 5 log
- log reductions (C. albicans; 0.2% Compound 1 emulsion): approximately 5 log
- log reductions (S. aureus; 0.1% Compound 1 emulsion): 5 log
- log reductions (S. aureus; 0.2% Compound 1 emulsion): 5 log
